Measured values from US10993957B2 (NuCana plc, priority 2011, dated 2021).
Like-named read-outs stand apart in the source and are kept apart here.

Assays:
L1210/0 = test: Cytostatic assay, L1210/0 cells; assay type: cell-based, murine; conditions: for IC50: read-out: IC50 L1210/0
Source text: (§1) The cell lines employed were L1210/0 (a leukemia cell line), FM3A/0 (a breast cancer cell line), Cem/0 (an acute lymphoblastic leukemia cell line) and HeLa (a cervical cell line).

Cem/0 = test: Cytostatic assay, CEM/0 cells; assay type: cell-based, human; conditions: for CC50: Table 1, read-out: CC50 Cem/0; for IC50: Table 6, read-out: IC50 Cem/0
Source text: as §1

Cem/TK^− = test: Cytostatic assay, thymidine kinase-deficient CEM/TK^− cells; assay type: cell-based, human; conditions: for CC50: Table 1, read-out: CC50 Cem/TK^−; for IC50: Table 6, read-out: IC50 Cem/TK^−
HeLa = test: Cytostatic assay, HeLa cells; assay type: cell-based; conditions: for CC50: Table 1, read-out: CC50 HeLa; for IC50: Table 6, read-out: IC50 HeLa
Source text: as §1

L1210/TK^− = test: Cytostatic assay, thymidine kinase-deficient L1210/TK^− cells; assay type: cell-based, murine; conditions: for CC50: L1210, Table 1, read-out: CC50 L1210/TK^−; for IC50: Table 6, read-out: IC50 L1210/TK^−
L1210.Hyor = test: Cytostatic assay, Mycoplasma hyorhinis-infected L1210 cells; conditions: for % Retention: CC50 L1210 × 100 ÷ CC50 L1210/Hyor; for CC50: L1210, read-out: CC50 L1210/Hyor
Source text: Murine leukaemia L1210/0 and human T-lymphocyte CEM/0 cells were obtained from the American Type Culture Collection (ATCC) (Rockville, Md.). Human glioblastoma U87 cells were kindly provided by Dr. E. Menue (Institut Pasteur, Paris, France). […] S. Eriksson (currently at Uppsala University, Uppsala, Sweden) and Prof A. Karlsson (Karolinska Institute, Stockholm, Sweden). […] All cells were maintained in Dulbecco's modified Eagle's medium (DMEM) (Invitrogen, Carlsbad, Calif.) with 10% foetal bovine serum (FBS) (Biochrom AG, Berlin, Germany), 10 mM Hepes and 1 mM Sodium Pyruvate (Invitrogen). Cells were grown at 37° C. in a humidified incubator with a gas phase of 5% CO2.
Monolayer cells (U87 and U87.Hyor) were seeded in 48-well microtiter plates (Nunc™, Roskilde, Denmark) at 10,000 cells/well. After 24 hours, an equal volume of fresh medium containing the test compounds was added. On day 5, cells were trypsinized and counted in a Coulter counter (Analis, Suarlée, Belgium). Suspension cells (L1210/0, L1210/TK^−, L1210.Hyor, CEM/0, CEM/TK^−) were seeded in 96-well microtiter plates (Nunc™) at 60,000 cells/well in the presence of a given amount of the test compounds. The cells were allowed to proliferate for 48 h (L1210) or 72 hours (CEM) and were then counted in a Coulter counter.
Samples were also assayed for their % retention of activity in mycoplasma infected cells.
The L1210/0 cell cultures were infected with the mycoplasma species M. hyorhinis (cells designated: L1210.Hyor).

HeLa/TK^− = test: Cytostatic assay, HeLa/TK^− cells; assay type: cell-based; conditions: for CC50: Table 1, read-out: CC50 HeLa/TK^−; for IC50: Table 6, read-out: IC50 HeLa/TK^−
Source text: as §1

[1] = Mus musculus, L1210/0, Table 1, read-out: CC50 L1210/0
[2] = Mus musculus, L1210/0, Table 2, mycoplasma negative cells, read-out: CC50 L1210
[3] = Mus musculus, L1210, read-out: IC50 L1210.Hyor
[4] = read-out: IC50 L1210.Hyor, Table 7

**Q.** What does the source list for `C[C@H](NP(=O)(OC[C@H]1O[C@@H](n2cc(F)c(=O)[nH]c2=O)CC1O)Oc1cccc2ccccc12)C(=O)OC1CCC1` (stereo partly drawn) [CPF 578, 5-Fluoro-2′-deoxyuridine-5′-O-[1-naphthyl-(cyclobutoxy-L-alaninyl)]phosphate]?
**A.** CC50 (L1210/0; [1]): 14 ± 3 nM; CC50 (L1210/0; [2]): 15 nM; IC50 (L1210/0; Mus musculus, L1210/0, Table 6): 14 ± 3 nM; IC50 (L1210/0; Mus musculus, L1210/0, Table 7): 11 ± 1.4 nM; CC50 (Cem/0; Homo sapiens, CCRF-CEM): 73 ± 18 nM; IC50 (Cem/0; Homo sapiens, CCRF-CEM): 73 ± 18 nM; CC50 (Cem/TK^−; Homo sapiens, CEM-TK(-)): 1500 ± 300 nM; IC50 (Cem/TK^−; Homo sapiens, CEM-TK(-)): 1500 ± 300 nM; CC50 (HeLa; Homo sapiens, HeLa): 69 ± 3 nM; IC50 (HeLa; Homo sapiens, HeLa): 69 ± 3 nM; CC50 (L1210/TK^−; Mus musculus): 88 ± 38 nM; IC50 (L1210/TK^−; Mus musculus, L1210): 88 ± 38 nM; % Retention (L1210.Hyor): 31%; CC50 (L1210.Hyor; Mus musculus): 48 nM; IC50 (L1210.Hyor; [3]): 24 ± 0.14 nM; IC50(L1210.Hyor)/IC50(L1210/0) (L1210.Hyor; Table 7): 2.2; CC50 (HeLa/TK^−; Homo sapiens, HeLa): 1500 ± 600 nM; IC50 (HeLa/TK^−; Homo sapiens, HeLa): 1500 ± 600 nM

**Q.** What does the source list for `CCCCCOC(=O)C(CC(C)C)NP(=O)(OCC1OC(n2cc(F)c(=O)[nH]c2=O)CC1O)Oc1cccc2ccccc12` (stereo not drawn) [Nap Pnt Leu]?
**A.** IC50 (L1210/0; Table 6): 17 ± 1 nM; IC50 (L1210/0; Table 7): 31 ± 2 nM; IC50 (Cem/0): 71 ± 8 nM; IC50 (Cem/TK^−): 15000 ± 4000 nM; IC50 (HeLa): 39 ± 14 nM; IC50 (L1210/TK^−): 1200 ± 400 nM; IC50(L1210.Hyor)/IC50(L1210/0) (L1210.Hyor; Table 7): 1.13; IC50 (L1210.Hyor; [4]): 35 ± 10 nM; IC50 (HeLa/TK^−): 7500 ± 400 nM

**Q.** Which IC50 (L1210/0; Table 6) does the source give for `CCOC(=O)C(NP(=O)(OCC1OC(n2cc(F)c(=O)[nH]c2=O)CC1O)Oc1ccccc1)C(C)C` (stereo not drawn) [Ph Et Val] here?
**A.** The IC50 was 160 ± 50 nM.

**Q.** What about the IC50 (L1210/0; Table 7) of the same molecule?
**A.** Its IC50 is 200 ± 33 nM.

**Q.** What about the IC50 (Cem/0) of the same molecule?
**A.** The IC50 was 1000 ± 100 nM.

**Q.** What about the IC50 (Cem/TK^−) of the same molecule?
**A.** Its IC50 is over 250000 nM.

**Q.** What about the IC50 (HeLa) of the same molecule?
**A.** Its IC50 is 1200 ± 300 nM.

**Q.** What about the IC50 (L1210/TK^−) of the same molecule?
**A.** The IC50 was 42000 ± 2000 nM.

**Q.** And the “IC50(L1210.Hyor)/IC50(L1210/0)” value (L1210.Hyor; Table 7)?
**A.** The value was 22.

**Q.** And the IC50 (L1210.Hyor; [4])?
**A.** The IC50 was 4400 ± 1100 nM.

**Q.** What about the IC50 (HeLa/TK^−) of the same molecule?
**A.** The IC50 was 27000 ± 7000 nM.

**Q.** For `CCCCCOC(=O)[C@H](C)NP(=O)(OC[C@H]1O[C@@H](n2cc(F)c(=O)[nH]c2=O)CC1O)Oc1cccc2ccccc12` (stereo partly drawn) [CPF 581, 5-Fluoro-2′-deoxyuridine-5′-O-[1-naphthyl-(pentoxy-L-alaninyl)] phosphate], which CC50 (L1210/0; [1]) is on record?
**A.** The CC50 was 2.8 ± 1 nM.

**Q.** What about the CC50 (L1210/0; [2]) of the same molecule?
**A.** The CC50 was 3.7 nM.

**Q.** And the IC50 (L1210/0; Mus musculus, L1210/0, Table 6)?
**A.** Its IC50 is 2.8 ± 1 nM.

**Q.** And the IC50 (L1210/0; Mus musculus, L1210/0, Table 7)?
**A.** The IC50 was 2.1 ± 0.07 nM.

**Q.** And the CC50 (Cem/0; Homo sapiens, CCRF-CEM)?
**A.** Its CC50 is 15 ± 6 nM.

**Q.** What about the IC50 (Cem/0; Homo sapiens, CCRF-CEM) of the same molecule?
**A.** The IC50 was 15 ± 6 nM.

**Q.** What about the CC50 (Cem/TK^−; Homo sapiens, CEM-TK(-)) of the same molecule?
**A.** Its CC50 is 280 ± 40 nM.

**Q.** What about the IC50 (Cem/TK^−; Homo sapiens, CEM-TK(-)) of the same molecule?
**A.** Its IC50 is 280 ± 40 nM.

**Q.** And the CC50 (HeLa; Homo sapiens, HeLa)?
**A.** The CC50 was 29 ± 23 nM.

**Q.** What about the IC50 (HeLa; Homo sapiens, HeLa) of the same molecule?
**A.** The IC50 was 29 ± 23 nM.

**Q.** What about the CC50 (L1210/TK^−; Mus musculus) of the same molecule?
**A.** Its CC50 is 130 ± 130 nM.

**Q.** What about the IC50 (L1210/TK^−; Mus musculus, L1210) of the same molecule?
**A.** Its IC50 is 130 ± 130 nM.

**Q.** And the “% Retention” value (L1210.Hyor)?
**A.** The value was 22%.

**Q.** And the CC50 (L1210.Hyor; Mus musculus)?
**A.** The CC50 was 17 nM.

**Q.** And the IC50 (L1210.Hyor; [3])?
**A.** Its IC50 is 6 ± 1.4 nM.

**Q.** And the “IC50(L1210.Hyor)/IC50(L1210/0)” value (L1210.Hyor; Table 7)?
**A.** The value was 2.9.

**Q.** What about the CC50 (HeLa/TK^−; Homo sapiens, HeLa) of the same molecule?
**A.** The CC50 was 440 ± 350 nM.

**Q.** And the IC50 (HeLa/TK^−; Homo sapiens, HeLa)?
**A.** The IC50 was 440 ± 350 nM.

**Q.** Which IC50 (L1210/0; Table 6) does the source give for `CCCCCOC(=O)C(NP(=O)(OCC1OC(n2cc(F)c(=O)[nH]c2=O)CC1O)Oc1cccc2ccccc12)C(C)CC` (mixture of isomers) [Nap Pnt Ile] here?
**A.** The IC50 was 220 ± 120 nM.

**Q.** And the IC50 (L1210/0; Table 7)?
**A.** Its IC50 is 420 ± 21 nM.

**Q.** And the IC50 (Cem/0)?
**A.** Its IC50 is 460 ± 110 nM.

**Q.** What about the IC50 (Cem/TK^−) of the same molecule?
**A.** Its IC50 is 17000 ± 1000 nM.

**Q.** And the IC50 (HeLa)?
**A.** Its IC50 is 300 ± 20 nM.

**Q.** And the IC50 (L1210/TK^−)?
**A.** The IC50 was 12000 ± 2000 nM.

**Q.** And the “IC50(L1210.Hyor)/IC50(L1210/0)” value (L1210.Hyor; Table 7)?
**A.** The value was 1.67.

**Q.** What about the IC50 (L1210.Hyor; [4]) of the same molecule?
**A.** Its IC50 is 700 ± 74 nM.

**Q.** And the IC50 (HeLa/TK^−)?
**A.** Its IC50 is 11000 ± 1000 nM.

**Q.** With `CCCCCOC(=O)C(C)(C)NP(=O)(OCC1OC(n2cc(F)c(=O)[nH]c2=O)CC1O)Oc1cccc2ccccc12` (stereo not drawn) [Nap Pnt DMG] as the molecule, how does the IC50 (L1210/0; Table 6) read?
**A.** Its IC50 is 37 ± 10 nM.

**Q.** And the IC50 (L1210/0; Table 7)?
**A.** The IC50 was 45 ± 2.1 nM.

**Q.** What about the IC50 (Cem/0) of the same molecule?
**A.** The IC50 was 140 nM.

**Q.** What about the IC50 (Cem/TK^−) of the same molecule?
**A.** Its IC50 is 5400 ± 1100 nM.

**Q.** And the IC50 (HeLa)?
**A.** Its IC50 is 120 ± 30 nM.

**Q.** And the IC50 (L1210/TK^−)?
**A.** Its IC50 is 300 ± 130 nM.

**Q.** What about the “IC50(L1210.Hyor)/IC50(L1210/0)” value (L1210.Hyor; Table 7) of the same molecule?
**A.** The value was 0.42.

**Q.** What about the IC50 (L1210.Hyor; [4]) of the same molecule?
**A.** Its IC50 is 19 ± 2.8 nM.

**Q.** And the IC50 (HeLa/TK^−)?
**A.** Its IC50 is 2300 ± 100 nM.
